In patent US20220401514A1, “ANTIMICROBIAL, BACTERIOPHAGE-DERIVED POLYPEPTIDES AND THEIR USE AGAINST GRAM-NEGATIVE AND ACID-FAST BACTERIA” (CONTRAFECT CORPORATION, priority 2019, published 2022):

Assays:
P. aeruginosa (CFS 1292) = experiment: microbe, parasite or virus in culture; type: cell-based, Pseudomonas aeruginosa
Enterobacter cloacae = experiment: microbe, parasite or virus in culture; type: cell-based; conditions: for MIC: Enterobacter cloacae ATCC 13047, CAA supplemented with human serum
Method: (§1) Determination of Minimal Inhibitory Concentrations (MIC).
(§2) Additional MIC testing was performed for several peptides against the ESKAPE pathogens Escherichia coli, Enterobacter cloacae, Klebsiella pneumoniae, and Acinetobacter baumannii, in CAA supplemented with human serum (Table D).

Escherichia coli = experiment: microbe, parasite or virus in culture; type: cell-based; conditions: for MIC: Escherichia coli ATCC 25922, CAA supplemented with human serum
Method: as §1, §2

M. smegmatis = experiment: 45 hr MIC against M. smegmatis (NTM), Mueller Hinton broth; type: cell-based, Mycobacterium smegmatis; conditions: M. smegmatis MC^2 155, Run #1
Klebsiella pneumoniae = type: cell-based; conditions: for MIC: Klebsiella pneumoniae HM-44, CAA supplemented with human serum
Method: as §1, §2

Acinetobacter baumannii = experiment: microbe, parasite or virus in culture; type: cell-based; conditions: for MIC: Acinetobacter baumannii ATCC BAA 747, CAA supplemented with human serum
[1] = system: carbapenem-resistant P. aeruginosa clinical isolate CFS-1292; experiment: MIC by modified CLSI broth microdilution against P. aeruginosa CFS-1292 (CAA, CAA + human serum); type: cell-based, Pseudomonas aeruginosa; conditions: for MIC (μg/mL) against CFS-1292 in 100% CAA (1st run/2nd run): 1st run or single value
[2] = Stability assessment in 100% CAA; type: in vitro ADME; parameters: unit not given beside the values
Method: Stability was assessed after incubation in 100% human serum at 37° C. after 10 minutes, 1 hour, and 2 hours.
Stability assessment was further conducted in 100% CAA and rabbit serum using the same methodology discussed above.

[3] = system: carbapenem-resistant bacterial strains; experiment: organism not typed; type: cell-based
From the text: as §1

S. maltophilia = experiment: MIC against S. maltophilia isolates; type: cell-based, Stenotrophomonas maltophilia; conditions: S. maltophilia isolates (n per peptide in table)
Method: as §1
In addition to the results discussed above in Example 3, further testing was conducted on several Chp peptides. MIC values were determined against different species, including P. aeruginosa, K. pneumoniae, A. baumannii, E. cloacae, E. coli, and S. maltophilia, and the results are presented below in Tables 40-45, wherein n=number of isolates tested for each species and MIC is measured as μg/mL.

Pseudomonas aeruginosa = experiment: microbe, parasite or virus in culture; type: cell-based; conditions: P. aeruginosa isolates (n per peptide in table)
[4] = E. cloacae isolates (n per peptide in table)
[5] = E. coli isolates (n per peptide in table)
[6] = K. pneumoniae isolates (n per peptide in table)
[7] = A. baumannii isolates (n per peptide in table)

**Q.** Which “Passage MIC Passage #1 (Untreated)” value (P. aeruginosa (CFS 1292); Passage #1, MIC of agent on untreated culture) does the source give for `NC[C@H]1O[C@H](O[C@H]2[C@H](O)[C@@H](O[C@H]3O[C@H](CO)[C@@H](O)[C@H](N)[C@H]3O)[C@H](N)C[C@@H]2N)[C@H](N)C[C@@H]1O` [Tobra] here?
**A.** 0.125 µg/mL

**Q.** And the “Passage MIC Passage #1” value (P. aeruginosa (CFS 1292); Passage #1, colonies from spot dilution, duplicates (1),(2))?
**A.** 0.5 µg/mL

**Q.** What about the “Passage MIC Passage #2 (Untreated)” value (P. aeruginosa (CFS 1292); Passage #2, MIC of agent on untreated culture) of the same compound?
**A.** 0.125 µg/mL

**Q.** And the “Passage MIC Passage #2” value (P. aeruginosa (CFS 1292); Passage #2, colonies from spot dilution, duplicates (1),(2))?
**A.** 0.5 µg/mL

**Q.** What about the “Passage MIC Passage #3 (Untreated)” value (P. aeruginosa (CFS 1292); Passage #3, MIC of agent on untreated culture) of the same compound?
**A.** 0.125 µg/mL

**Q.** And the “Passage MIC Passage #3” value (P. aeruginosa (CFS 1292); Passage #3, colonies from spot dilution, duplicates (1),(2))?
**A.** 0.5 µg/mL

**Q.** And the “Passage MIC Passage #4 (Untreated)” value (P. aeruginosa (CFS 1292); Passage #4, MIC of agent on untreated culture)?
**A.** 0.125 µg/mL

**Q.** And the “Passage MIC Passage #4” value (P. aeruginosa (CFS 1292); Passage #4, colonies from spot dilution, duplicates (1),(2))?
**A.** 0.5 µg/mL

**Q.** And the “Passage MIC Passage #5 (Untreated)” value (P. aeruginosa (CFS 1292); Passage #5, MIC of agent on untreated culture)?
**A.** 0.125 µg/mL

**Q.** And the “Passage MIC Passage #5” value (P. aeruginosa (CFS 1292); Passage #5, colonies from spot dilution, duplicates (1),(2))?
**A.** 1 µg/mL

**Q.** With “MAGKKMVSKGKDRQIFRKTADRTKKMNVRPLLYRGGIRL [Chp12]” as the compound, how does the MIC (Enterobacter cloacae) read?
**A.** 32 µg/mL

**Q.** What about the MIC (Escherichia coli) of the same compound?
**A.** 8 µg/mL

**Q.** What about the “45 hr MIC” value (M. smegmatis) of the same compound?
**A.** 64 µg/mL

**Q.** And the MIC (Klebsiella pneumoniae)?
**A.** 16 µg/mL

**Q.** And the MIC (Acinetobacter baumannii)?
**A.** 1 µg/mL

**Q.** And the “MIC (μg/mL) against CFS-1292 in 100% CAA (1st run/2nd run)” value (“MIC (μg/mL) against CFS-1292 in 100% CAA” below) [1]?
**A.** 8 µg/mL

**Q.** And the “MIC (100% CAA)” value [2]?
**A.** 8

**Q.** What does the source list for “MAKKMTKGKDRQVFRKTADRTKKLNVRPLLYRGGIRL [Chp11]”?
**A.** MIC (Enterobacter cloacae): 32 µg/mL; MIC (Escherichia coli): 2 µg/mL; 45 hr MIC (M. smegmatis): 32 µg/mL; MIC (Klebsiella pneumoniae): 16 µg/mL; MIC (Acinetobacter baumannii): 32 µg/mL; MIC (μg/mL) against CFS-1292 in 100% CAA (1st run/2nd run) [1]: 16 µg/mL; MIC (μg/mL) against CFS-1292 in CAA + […] human serum [1]: 4 µg/mL; MIC (100% CAA) [2]: 16

**Q.** For “MAKRHKIPQRASQHSFTRHAQKVHPKNVPRLPMRGGIRL [AVQ244]”, which “45 hr MIC” value (M. smegmatis) is on record?
**A.** 64 µg/mL

**Q.** And the “MIC (μg/mL) against CFS-1292 in 100% CAA” value [1]?
**A.** 64 µg/mL

**Q.** And the “MIC (100% CAA)” value [2]?
**A.** 64

**Q.** Which MIC50 (Enterobacter cloacae; [4]) does the source give for “MARRKKMKGKRDKRVFKQTANKTKAINISPKNMRGGTRL [Unp3]” here?
**A.** >8 µg/mL

**Q.** And the MIC100 (Enterobacter cloacae; [4])?
**A.** >8 µg/mL

**Q.** What about the “MIC Range” value (Enterobacter cloacae; [4]) of the same compound?
**A.** >8 µg/mL

**Q.** And the MIC (Enterobacter cloacae)?
**A.** 8 µg/mL

**Q.** And the MIC50 (Escherichia coli; [5])?
**A.** >8 µg/mL

**Q.** What about the MIC100 (Escherichia coli; [5]) of the same compound?
**A.** >8 µg/mL

**Q.** What about the MIC (Escherichia coli) of the same compound?
**A.** 0.5 µg/mL

**Q.** And the “45 hr MIC” value (M. smegmatis)?
**A.** 32 µg/mL

**Q.** And the MIC50 (Klebsiella pneumoniae; [6])?
**A.** >8 µg/mL

**Q.** What about the MIC100 (Klebsiella pneumoniae; [6]) of the same compound?
**A.** >8 µg/mL

**Q.** And the “MIC Range” value (Klebsiella pneumoniae; [6])?
**A.** >8 µg/mL

**Q.** What about the MIC (Klebsiella pneumoniae) of the same compound?
**A.** 4 µg/mL

**Q.** What about the MIC50 (Acinetobacter baumannii; [7]) of the same compound?
**A.** >8 µg/mL

**Q.** And the MIC100 (Acinetobacter baumannii; [7])?
**A.** >8 µg/mL

**Q.** What about the MIC (Acinetobacter baumannii) of the same compound?
**A.** 2 µg/mL

**Q.** And the “MIC (μg/mL) against CFS-1292 in 100% CAA” value [1]?
**A.** 8 µg/mL

**Q.** What about the MIC ([3]; carbapenem-resistant isolate PA19) of the same compound?
**A.** 8 µg/mL

**Q.** And the MIC ([3]; carbapenem-resistant isolate PA20)?
**A.** >8 µg/mL

**Q.** And the MIC ([3]; carbapenem-resistant isolate PA21)?
**A.** >8 µg/mL

**Q.** And the MIC ([3]; carbapenem-resistant isolate PA22)?
**A.** >8 µg/mL

**Q.** And the MIC ([3]; carbapenem-resistant isolate PA23)?
**A.** >8 µg/mL

**Q.** What about the MIC ([3]; carbapenem-resistant isolate PA24) of the same compound?
**A.** >8 µg/mL

**Q.** What about the MIC ([3]; carbapenem-resistant isolate WLC-452) of the same compound?
**A.** >8 µg/mL

**Q.** And the MIC50 (S. maltophilia)?
**A.** >8 µg/mL

**Q.** What about the MIC100 (S. maltophilia) of the same compound?
**A.** >8 µg/mL

**Q.** And the “MIC Range” value (S. maltophilia)?
**A.** >8 µg/mL

**Q.** What about the MIC50 (Pseudomonas aeruginosa) of the same compound?
**A.** >8 µg/mL

**Q.** What about the MIC100 (Pseudomonas aeruginosa) of the same compound?
**A.** >8 µg/mL

**Q.** What about the “MIC (100% CAA)” value [2] of the same compound?
**A.** 4

**Q.** What does the source list for “MCKKVCKKCPKKGPKNAPKIGAFYERKTPRLKQST [CPAR39]”?
**A.** 45 hr MIC (M. smegmatis): >128 µg/mL; MIC (μg/mL) against CFS-1292 in 100% CAA (1st run/2nd run) [1]: 4 µg/mL; MIC (μg/mL) against CFS-1292 in CAA + […] human serum [1]: 1 µg/mL; MIC (μg/mL) against CFS-1292 in CAA + […] human serum ([1]; listed as CPAR39 + DTT): 4 µg/mL; MIC (μg/mL) against CFS-1292 in CAA + […] human serum ([1]; listed as CPAR39 − DTT): 64 µg/mL; MIC (100% CAA) [2]: 4

**Q.** With “MKRKPMSRKASQKTFKKNTGVQRMNHLNPRAMRGGIRL [Bdp1]” as the compound, how does the MIC (Enterobacter cloacae) read?
**A.** >32 µg/mL

**Q.** And the MIC (Escherichia coli)?
**A.** >32 µg/mL

**Q.** What about the “45 hr MIC” value (M. smegmatis) of the same compound?
**A.** 32 µg/mL

**Q.** What about the MIC (Klebsiella pneumoniae) of the same compound?
**A.** >32 µg/mL

**Q.** What about the MIC (Acinetobacter baumannii) of the same compound?
**A.** >32 µg/mL

**Q.** What about the “MIC (μg/mL) against CFS-1292 in 100% CAA” value [1] of the same compound?
**A.** 16 µg/mL

**Q.** What about the “MIC (μg/mL) against CFS-1292 in CAA + […] human serum” value [1] of the same compound?
**A.** >32 µg/mL

**Q.** What about the “MIC (100% CAA)” value [2] of the same compound?
**A.** 16
